Reference: patent US11987564B2, “PTPRD inhibitors and uses thereof” (United States Government as represented by the Department …, priority 2021, dated 2024)
Like-named read-outs stand apart in the source and are kept apart here.

Columns and labels:
PTPRS = PTPRS (Homo sapiens, UniProt Q13332); assay: pNPP hydrolysis by recombinant PTPRS phosphatase; format: biochemical
Description: (§1) Human […] ([…]-pY-[…]) phosphopeptide (Pierce/ThermoFisher) were synthesized.

PTPRJ = biological target: T1, PTPRJ (Homo sapiens, UniProt Q12913); assay: pNPP hydrolysis by PTPRJ phosphatase; format: biochemical
T1 construct: purchased
T1 sequence (Q12913 36-1337): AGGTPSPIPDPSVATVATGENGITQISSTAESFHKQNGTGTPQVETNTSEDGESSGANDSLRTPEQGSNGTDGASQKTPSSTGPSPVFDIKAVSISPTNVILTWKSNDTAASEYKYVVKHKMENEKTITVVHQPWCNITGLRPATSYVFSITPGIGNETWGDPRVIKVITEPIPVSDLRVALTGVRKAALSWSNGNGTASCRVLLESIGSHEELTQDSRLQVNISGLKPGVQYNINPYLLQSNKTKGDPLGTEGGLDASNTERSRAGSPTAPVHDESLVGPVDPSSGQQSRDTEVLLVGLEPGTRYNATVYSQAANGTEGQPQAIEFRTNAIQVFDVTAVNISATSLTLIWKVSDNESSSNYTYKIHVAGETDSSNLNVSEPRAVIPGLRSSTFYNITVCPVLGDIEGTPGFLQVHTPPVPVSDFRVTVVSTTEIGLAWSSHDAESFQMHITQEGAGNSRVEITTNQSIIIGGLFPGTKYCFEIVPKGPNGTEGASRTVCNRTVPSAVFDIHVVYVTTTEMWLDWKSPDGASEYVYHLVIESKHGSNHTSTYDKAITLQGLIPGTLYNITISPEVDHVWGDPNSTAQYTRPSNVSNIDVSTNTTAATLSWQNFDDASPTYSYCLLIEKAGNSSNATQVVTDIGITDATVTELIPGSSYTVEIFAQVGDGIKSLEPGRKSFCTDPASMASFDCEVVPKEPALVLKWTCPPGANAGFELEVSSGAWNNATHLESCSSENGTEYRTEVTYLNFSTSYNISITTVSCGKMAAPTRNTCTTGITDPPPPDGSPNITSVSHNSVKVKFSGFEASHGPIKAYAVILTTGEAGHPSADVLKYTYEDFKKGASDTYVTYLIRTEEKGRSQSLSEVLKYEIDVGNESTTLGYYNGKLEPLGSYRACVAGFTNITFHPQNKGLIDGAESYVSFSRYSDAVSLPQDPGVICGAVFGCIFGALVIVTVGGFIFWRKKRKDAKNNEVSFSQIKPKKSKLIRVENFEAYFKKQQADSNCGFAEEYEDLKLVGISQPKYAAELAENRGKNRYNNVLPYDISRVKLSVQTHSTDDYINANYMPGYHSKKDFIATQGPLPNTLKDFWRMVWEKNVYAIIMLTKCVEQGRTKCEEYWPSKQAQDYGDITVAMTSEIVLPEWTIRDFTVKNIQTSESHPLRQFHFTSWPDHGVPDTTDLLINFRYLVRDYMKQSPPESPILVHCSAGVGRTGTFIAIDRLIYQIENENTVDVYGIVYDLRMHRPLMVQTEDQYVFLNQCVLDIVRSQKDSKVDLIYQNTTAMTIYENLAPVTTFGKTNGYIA
Description: as §1

PTPN1 (PTP1B) = biological target: T2, PTPN1 (PTP1B) (Homo sapiens, UniProt P18031); assay: pNPP hydrolysis by PTPN1 (PTP1B) phosphatase; format: biochemical; conditions: untitled table after Table 4; mean, SEM in wrapped line
T2 construct: purchased
T2 sequence (P18031 1-435): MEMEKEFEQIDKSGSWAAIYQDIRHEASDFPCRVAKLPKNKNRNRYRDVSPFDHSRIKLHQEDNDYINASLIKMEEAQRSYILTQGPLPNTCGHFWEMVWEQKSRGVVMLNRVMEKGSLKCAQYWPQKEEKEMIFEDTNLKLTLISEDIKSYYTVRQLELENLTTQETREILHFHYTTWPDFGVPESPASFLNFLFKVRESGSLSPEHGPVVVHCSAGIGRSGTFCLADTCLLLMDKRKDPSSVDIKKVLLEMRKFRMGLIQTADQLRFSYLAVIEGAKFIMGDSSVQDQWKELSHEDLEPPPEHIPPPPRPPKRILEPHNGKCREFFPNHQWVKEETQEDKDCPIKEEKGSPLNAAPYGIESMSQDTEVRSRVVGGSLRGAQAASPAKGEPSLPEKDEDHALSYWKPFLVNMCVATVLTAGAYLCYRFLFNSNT

[1] = test system: wildtype C57BL/6J or PTPRD knockout mice
PTPRF = PTPRF (Homo sapiens, UniProt P10586); assay: pNPP hydrolysis by recombinant PTPRF phosphatase
Description: (§2) Phosphatase assays: Data for each assay type (3 wells/experimental condition, read using a Spectromax plate reader) was plotted vs time, and results derived from the slopes of linear regions were reported from triplicate independent experiments.
(§3) For assays of compound ligands that were likely pseudo-irreversible, 18 min preincubations were also added. For work determining the effect of flavonoids on pNPP hydrolysis, a 96 well half-area plate was prepared by first filling each well to be tested with 18 μL of 50 μM pNPP and 25 uL of running buffer, and 2 μL of DMSO containing the desired concentration of flavonoid and/or peptide. PTPRD phosphatase was diluted 1:50 in a dilution buffer.

recombinant PTPRD = recombinant PTPRD (Homo sapiens, UniProt P23468); assay: pNPP hydrolysis by recombinant PTPRD phosphatase
Chain of recombinant PTPRD (P23468 21-1912): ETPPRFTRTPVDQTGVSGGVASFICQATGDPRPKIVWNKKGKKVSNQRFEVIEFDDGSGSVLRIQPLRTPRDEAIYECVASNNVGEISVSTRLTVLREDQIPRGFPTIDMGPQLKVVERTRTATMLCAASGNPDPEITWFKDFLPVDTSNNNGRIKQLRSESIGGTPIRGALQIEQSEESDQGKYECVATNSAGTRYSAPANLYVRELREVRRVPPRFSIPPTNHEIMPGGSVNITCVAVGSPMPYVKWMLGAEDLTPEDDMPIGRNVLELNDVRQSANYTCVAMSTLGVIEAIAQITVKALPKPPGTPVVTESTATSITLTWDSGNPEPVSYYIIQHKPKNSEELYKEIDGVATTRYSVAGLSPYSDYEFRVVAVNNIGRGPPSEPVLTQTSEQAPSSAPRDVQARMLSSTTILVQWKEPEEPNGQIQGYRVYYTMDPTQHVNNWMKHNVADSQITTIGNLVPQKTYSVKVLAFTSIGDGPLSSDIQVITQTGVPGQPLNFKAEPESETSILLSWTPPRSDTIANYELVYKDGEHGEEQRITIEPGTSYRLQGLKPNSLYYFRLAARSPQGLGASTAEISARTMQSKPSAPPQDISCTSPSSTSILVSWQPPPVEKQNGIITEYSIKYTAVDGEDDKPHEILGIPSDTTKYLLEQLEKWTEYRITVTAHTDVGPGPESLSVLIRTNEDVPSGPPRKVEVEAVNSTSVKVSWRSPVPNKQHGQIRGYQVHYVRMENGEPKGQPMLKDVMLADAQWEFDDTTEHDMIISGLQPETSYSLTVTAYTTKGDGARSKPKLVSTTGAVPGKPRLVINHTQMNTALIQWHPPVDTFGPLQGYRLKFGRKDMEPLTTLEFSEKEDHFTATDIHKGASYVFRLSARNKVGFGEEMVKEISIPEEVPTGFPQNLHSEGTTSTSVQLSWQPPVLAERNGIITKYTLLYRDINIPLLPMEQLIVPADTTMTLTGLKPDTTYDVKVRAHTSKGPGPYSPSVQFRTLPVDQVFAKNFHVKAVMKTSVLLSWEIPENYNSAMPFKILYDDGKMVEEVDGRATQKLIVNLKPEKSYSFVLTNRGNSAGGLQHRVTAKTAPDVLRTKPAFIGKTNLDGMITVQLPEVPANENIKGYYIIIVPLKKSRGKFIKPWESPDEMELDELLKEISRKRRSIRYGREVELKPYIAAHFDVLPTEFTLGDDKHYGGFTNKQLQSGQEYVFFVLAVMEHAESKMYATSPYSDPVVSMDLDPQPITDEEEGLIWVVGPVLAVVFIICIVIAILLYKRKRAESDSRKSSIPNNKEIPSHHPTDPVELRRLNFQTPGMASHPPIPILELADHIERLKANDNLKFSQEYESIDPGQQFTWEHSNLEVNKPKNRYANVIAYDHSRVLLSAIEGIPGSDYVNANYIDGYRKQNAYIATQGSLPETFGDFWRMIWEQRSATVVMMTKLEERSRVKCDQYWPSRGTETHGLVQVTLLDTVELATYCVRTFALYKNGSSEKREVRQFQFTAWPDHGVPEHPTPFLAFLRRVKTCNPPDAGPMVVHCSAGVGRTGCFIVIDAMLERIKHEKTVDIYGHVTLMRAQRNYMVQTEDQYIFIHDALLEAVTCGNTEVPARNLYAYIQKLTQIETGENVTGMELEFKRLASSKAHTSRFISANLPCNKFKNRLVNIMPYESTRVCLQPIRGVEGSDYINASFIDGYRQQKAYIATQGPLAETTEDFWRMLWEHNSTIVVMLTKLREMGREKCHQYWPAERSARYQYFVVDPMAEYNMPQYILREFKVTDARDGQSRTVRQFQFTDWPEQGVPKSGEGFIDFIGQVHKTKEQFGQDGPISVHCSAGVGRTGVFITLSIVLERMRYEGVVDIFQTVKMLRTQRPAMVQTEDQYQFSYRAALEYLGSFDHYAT
Description: as §2, §3

[2] = Table 4, mean (SEM) of three independent experiments, * = instability, no valid triplicate
[3] = untitled table after Table 4, mean, SEM in wrapped line
[4] = PTPRF IC50, Table 4, mean (SEM) of three independent experiments, * = instability, no valid triplicate
[5] = PTPRF IC50, untitled table after Table 4, mean, SEM in wrapped line
[6] = PTPRD IC50, Table 4, mean (SEM) of three independent experiments, * = instability, no valid triplicate
[7] = PTPRD IC50, untitled table after Table 4, mean, SEM in wrapped line, compounds with PTPRD IC50 <5 μM

Chain of PTPRS (Q13332 30-1948, species assumed): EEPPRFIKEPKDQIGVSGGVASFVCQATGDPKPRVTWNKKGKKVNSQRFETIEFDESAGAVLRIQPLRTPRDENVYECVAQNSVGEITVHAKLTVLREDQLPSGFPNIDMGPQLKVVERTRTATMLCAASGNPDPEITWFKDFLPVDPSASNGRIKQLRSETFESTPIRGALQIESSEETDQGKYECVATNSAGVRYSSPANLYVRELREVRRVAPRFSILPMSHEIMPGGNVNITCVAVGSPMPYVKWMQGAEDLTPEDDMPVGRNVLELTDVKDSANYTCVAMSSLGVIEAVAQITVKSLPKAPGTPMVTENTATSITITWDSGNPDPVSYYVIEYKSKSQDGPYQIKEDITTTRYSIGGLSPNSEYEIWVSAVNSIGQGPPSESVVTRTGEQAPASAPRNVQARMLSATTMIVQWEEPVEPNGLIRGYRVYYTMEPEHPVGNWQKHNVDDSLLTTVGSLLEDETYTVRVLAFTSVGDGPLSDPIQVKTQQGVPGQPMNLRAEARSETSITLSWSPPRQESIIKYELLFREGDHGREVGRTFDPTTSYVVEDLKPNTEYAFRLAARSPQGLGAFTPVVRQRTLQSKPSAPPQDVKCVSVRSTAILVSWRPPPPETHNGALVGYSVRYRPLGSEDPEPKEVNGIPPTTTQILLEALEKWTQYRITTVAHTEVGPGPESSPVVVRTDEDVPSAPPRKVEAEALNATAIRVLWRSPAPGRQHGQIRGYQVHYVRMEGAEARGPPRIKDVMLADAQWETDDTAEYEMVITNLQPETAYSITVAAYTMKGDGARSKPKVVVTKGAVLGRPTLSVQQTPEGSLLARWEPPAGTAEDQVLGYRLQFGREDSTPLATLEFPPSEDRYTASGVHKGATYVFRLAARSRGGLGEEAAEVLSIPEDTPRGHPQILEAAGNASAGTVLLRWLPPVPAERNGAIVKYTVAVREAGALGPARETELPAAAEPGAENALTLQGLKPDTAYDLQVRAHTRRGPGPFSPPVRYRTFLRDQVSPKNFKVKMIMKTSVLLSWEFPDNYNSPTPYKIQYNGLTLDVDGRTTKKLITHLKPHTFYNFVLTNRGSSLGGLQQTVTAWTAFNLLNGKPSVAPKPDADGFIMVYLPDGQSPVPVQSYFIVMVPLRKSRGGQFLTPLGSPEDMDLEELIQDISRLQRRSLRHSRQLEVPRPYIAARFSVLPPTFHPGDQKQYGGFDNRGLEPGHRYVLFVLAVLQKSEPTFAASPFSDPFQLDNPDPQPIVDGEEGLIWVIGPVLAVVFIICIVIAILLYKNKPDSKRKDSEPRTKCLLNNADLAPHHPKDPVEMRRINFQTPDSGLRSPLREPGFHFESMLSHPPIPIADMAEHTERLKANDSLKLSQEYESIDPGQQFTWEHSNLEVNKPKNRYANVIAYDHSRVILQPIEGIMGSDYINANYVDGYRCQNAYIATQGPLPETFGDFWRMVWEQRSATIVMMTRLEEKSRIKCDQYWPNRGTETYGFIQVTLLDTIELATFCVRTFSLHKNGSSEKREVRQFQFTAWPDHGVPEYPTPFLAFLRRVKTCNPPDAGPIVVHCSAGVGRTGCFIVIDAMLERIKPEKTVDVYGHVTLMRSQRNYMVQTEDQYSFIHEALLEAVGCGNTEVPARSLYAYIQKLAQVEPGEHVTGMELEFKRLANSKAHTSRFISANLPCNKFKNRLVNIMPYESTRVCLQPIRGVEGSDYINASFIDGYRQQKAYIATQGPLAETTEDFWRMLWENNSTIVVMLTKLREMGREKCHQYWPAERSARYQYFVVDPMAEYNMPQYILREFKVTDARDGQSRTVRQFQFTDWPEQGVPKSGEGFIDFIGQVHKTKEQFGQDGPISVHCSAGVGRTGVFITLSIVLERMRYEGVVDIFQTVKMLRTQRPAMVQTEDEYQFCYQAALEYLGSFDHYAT

IC50 (PTPRS; [2]) | IC50 (PTPRS; [3]) | IC50 (PTPRJ; [2]) | IC50 (PTPRJ; [3]) | IC50 (PTPN1 (PTP1B)) | IC50 (PTPRF; [4]) | IC50 (PTPRF; [5]) | IC50 (recombinant PTPRD; read-out: PTPRD IC50, untitled table after Table 4, mean, SEM in wrapped line, compounds with PTPRD IC50 <5 μM) | IC50 (recombinant PTPRD; [6]) | IC50 (recombinant PTPRD; [7]) | SMILES | death (or euthanasia) prior to day 3 ([1]; 400 or 200 mg/kg gavage) | no observed adverse effect level (NOAEL) ([1]; mouse, single dose p.o., based on weight changes, gross pathology, histopathology, cage behaviors)
1.6 µM | 1.6 µM | 47.2 µM | 47.2 µM | 171 µM | 3.62 µM | 3.62 µM | 1.64 µM | – | – | COc1c(OCc2ccccc2)cc2c(c1C=O)CC(O)OC2=O (centres unmarked) [Compound 27, 7-(Benzyloxy)-3-hydroxy-6-methoxy-1-oxoisochromane-5-carbaldehyde] | – | –
2.76 µM | 2.76 µM | 51.9 µM | 51.9 µM | 121 µM | 3.87 µM | 3.87 µM | – | 2.82 µM | 2.82 µM | COc1c(OCCC(C)C)cc2c(c1C=O)CC(O)OC2=O (centres unmarked) [Compound 58, 3-Hydroxy-7-(isopentyloxy)-6-methoxy-1-oxoisochromane-5-carbaldehyde] | – | –
3.58 µM | 3.58 µM | 37.7 µM | 37.7 µM | 148 µM | 6.57 µM | 6.57 µM | – | 3.8 µM | 3.8 µM | COc1c(OCc2ccc(C)cc2)cc2c(c1C=O)CC(O)OC2=O (centres unmarked) [Compound 29, 3-Hydroxy-6-methoxy-7-((4-methylbenzyl)oxy)-1-oxoisochromane-5-carbaldehyde] | – | –

SMILES | IC50 (PTPRS; [2]) | IC50 (PTPRS; [3]) | IC50 (PTPRJ; [2]) | IC50 (PTPRJ; [3]) | IC50 (PTPN1 (PTP1B)) | IC50 (PTPRF; [4]) | IC50 (PTPRF; [5]) | IC50 (recombinant PTPRD; read-out: PTPRD IC50, untitled table after Table 4, mean, SEM in wrapped line, compounds with PTPRD IC50 <5 μM) | IC50 (recombinant PTPRD; [6]) | IC50 (recombinant PTPRD; [7]) | death (or euthanasia) prior to day 3 ([1]; 400 or 200 mg/kg gavage) | no observed adverse effect level (NOAEL) ([1]; mouse, single dose p.o., based on weight changes, gross pathology, histopathology, cage behaviors)
COc1c(OCC2CCCC2)cc2c(c1C=O)CC(O)OC2=O (centres unmarked) [Compound 66, 7-Cyclopentylmethoxy-3-hydroxy-6-methoxy-1-oxo-isochroman-5-carbaldehyde] | 0.61 µM | 0.61 µM | 29.3 µM | 29.3 µM | 119 µM | 1.72 µM | 1.72 µM | – | – | – | none | 200 mg/kg
